Tests used:
[1] = test system: AVP-induced rise in blood pressure; assay: Blood pressure pharmacology rats; format: in vivo
Description: Blood pressure pharmacology rats. […] Prior to menses, blood vessels in the uterine wall become engorged with blood. Vasopressin, acting through V1a receptors, causes constriction of both uterine and vascular smooth muscle contributing to the discomfort and pain of primary dysmenorrhea. Vasopressin is one of the endogenous factors that maintains vascular tone. Blocking the V1a receptors localized to smooth muscle may ameliorate the symptoms of primary dysmenorrhea. Elevated concentrations of vasopressin, acting through V1a receptors causes constriction of both uterine and vascular smooth muscle contributing to the discomfort and pain of primary dysmenorrhea. There are no animal models for evaluating receptor antagonists on dysmenorrhea. […]
Male rats were divided into five groups, and each group was tested with placebo, or one of four doses of one or more of the compounds described herein, such as with Example 225 at 0.16, 0.4, 1.0, and 2.5 mg/kg. Rats were treated orally with the compound and effects on blood pressure were measured 90-150 min later as follows. Under isoflurane anesthesia blood pressure was recorded through a cannula in the femoral artery. To increase systemic blood pressure AVP was administered (25 ng/kg) through a cannula in the femoral vein; the change in mean blood pressure was recorded two minutes following injection of AVP.

V1a [2] = molecular target: T1, V1a (Homo sapiens, UniProt P37288); assay: Human vasopression V1a receptor binding assay; parameters: host or cells: CHO cells (hV1a cell line), whole adherent cells
Outline: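 Whole CHO cells stably expressing human V1a receptor competed 1 nM 3H-AVP against 10-fold serial compound dilutions (DMSO) in pH 7.0 Hepes/BSA/DMEM buffer, 45 min at 37° C.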

vasopressin V1a receptor = molecular target: T2, vasopressin V1a receptor (Homo sapiens, UniProt P37288); assay: Inhibition of phosphatidylinositol turnover; format: cell-based; settings: hV1a cells
T2 construct: host or cells: CHO cells (hV1a cell line), whole adherent cells
Description: Inhibition of phosphatidylinositol turnover. The physiological effects of vasopressin are mediated through specific G-protein coupled receptors. The vasopressin V1a receptor is coupled to the Gq/G11 family of G proteins and mediates phosphatidylinositol turnover. The agonist or antagonist character of the compounds of the invention may be determined by their ability to inhibit vasopressin-mediated turnover of phosphatidylinositol by the procedure described in the following paragraphs.
Cell culture and labeling of cells. Three days prior to the assay, near-confluent cultures of hV1a cells were dissociated and seeded in 6-well tissue culture plates, about 100 wells being seeded from each 75 cm^2 flask (equivalent to 12:1 split ratio).
Incubations. All assays were in triplicate except for basal and 10 nM AVP (both n=6). AVP ((arginine vasopressin), Peninsula Labs, Belmont, Calif., USA (#8103)) was dissolved in 0.1N acetic acid. Test agents were dissolved in DMSO and diluted in DMSO to 200 times the final test concentration. […] The order of incubations was randomized. Incubations were initiated by removing the prelabeling medium, washing the monolayer once with 1 mL of 0.9% NaCl, and transferring the contents of the assay tubes to corresponding wells. The plates were incubated for 1 hour at 37° C. Incubations were terminated by removing the incubation medium and adding 500 μL of ice cold 5% (w/v) trichloroacetic acid and allowing the wells to stand for 15 min.
Measurement of [^3H]inositol phosphates. BioRad Poly-Prep Econo-Columns were packed with 0.3 mL of AG 1 X-8 100-200 formate form resin. Resin was mixed 1:1 with water and 0.6 mL added to each column. Columns were then washed with 10 mL water. Scintillation vials (20 mL) were placed under each column. For each well, the contents were transferred to a minicolumn, after which the well was washed with 0.5 mL distilled water, which was also added to the minicolumn. The columns were then washed twice with 5 mL of 5 mM myo-inositol to elute free inositol. Aliquots (1 mL) were transferred to 20 mL scintillation vials and 10 mL of Beckman Ready Protein Plus added. After the myo-inositol wash was complete, empty scintillation vials were placed under the columns, and [^3H]inositol phosphates were eluted with three additions of 1 mL 0.5 M ammonium formate containing 0.1 N formic acid. Elution conditions were optimized to recover inositol mono-, bis-, and trisphosphates, without eluting the more metabolically inert tetrakis-, pentakis-, and hexakis-phosphates. To each sample was added 10 mL of a high salt capacity scintillation fluid such as Tru-Count High Salt Capacity or Packard Hionic-Fluor. Inositol lipids were measured by adding 1 mL of 2% sodium dodecyl sulfate (SDS) to each well, allowing the wells to stand for at least 30 min., and transferring the solution to 20 mL scintillation vials, to which 10 mL Beckman Ready Protein Plus scintillation fluid was then added. Samples were counted in a Beckman LS 3801 liquid scintillation counter for 10 min. Total inositol incorporation for each well was calculated as the sum of free inositol, inositol phosphates, and inositol lipids.
Data analysis: concentration-inhibition experiments. Concentration-response curves for AVP and concentration-inhibition curves for test agents versus 10 nM AVP were analyzed by nonlinear least-squares curve-fitting to a 4-parameter logistic function. Parameters for basal and maximal inositol phosphates, EC50 or IC50, and Hill coefficient were varied to achieve the best fit. The curve-fitting was weighted under the assumption that the standard deviation was proportional to dpm of radioactivity. Full concentration-response curves for AVP were run in each experiment, and IC50 values were converted to Ki values by application of the Cheng-Prusoff equation, based on the EC50 for AVP in the same experiment. Inositol phosphates were expressed as dpm per 10^6 dpm of total inositol incorporation.

[3] = test system: panel of 63 other receptors; assay: Comparative binding to other receptors showing selectivity (NOVASCREEN); settings: 100 nM
Description: Comparative binding to other receptors showing selectivity.

V1a [4] = molecular target: T1, V1a; parameters: host or cells: human subjects (in vivo); settings: oral, subjects 18-35 years; cited from earlier work

T1 sequence (P37288 whole entry): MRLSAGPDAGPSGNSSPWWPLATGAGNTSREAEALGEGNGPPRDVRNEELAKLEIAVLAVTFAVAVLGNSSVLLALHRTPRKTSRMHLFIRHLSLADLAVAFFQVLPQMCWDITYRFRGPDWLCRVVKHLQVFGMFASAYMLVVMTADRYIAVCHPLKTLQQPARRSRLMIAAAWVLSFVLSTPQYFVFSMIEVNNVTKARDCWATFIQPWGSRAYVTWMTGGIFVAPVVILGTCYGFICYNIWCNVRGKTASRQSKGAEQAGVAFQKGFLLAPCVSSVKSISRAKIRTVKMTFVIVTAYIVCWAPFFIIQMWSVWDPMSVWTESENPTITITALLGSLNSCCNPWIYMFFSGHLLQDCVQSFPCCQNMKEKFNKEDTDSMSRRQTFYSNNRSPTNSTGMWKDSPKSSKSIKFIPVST
T2 sequence (P37288 whole entry): as above

| SMILES | inhibition of the AVP-induced rise in blood pressure ([1]; male rats, oral 0.16, 0.4, 1.0, 2.5 mg/kg, 90-150 min before AVP 25 ng/kg) | reduction in blood pressure as compared to vehicle and the two lower doses ([1]; rats, oral 1 and 2.5 mg/kg) | IC50 (V1a [2]; hV1a cell line (CHO), 1 nM 3H-AVP, Table 17, read-out: V1a Binding Affinity (IC50 (nM))) | binding curve against [3H]-AVP (V1a [2]; hV1a cell line, 10 fold dilutions of test compound) | Ki (vasopressin V1a receptor; from IC50 by Cheng-Prusoff equation, read-out: Ki, suppression of the action of AVP) | suppression of the action of AVP (vasopressin V1a receptor; inositol phosphates) | IC50 (vasopressin V1a receptor; versus 10 nM AVP, inositol phosphates, read-out: IC50, suppression of the action of AVP) | selective binding against panel of 63 other receptors [3] | reduction in pain across three menstrual cycles (V1a [4]) |
| --- | --- | --- | --- | --- | --- | --- | --- | --- | --- |
| CN(Cc1cccc(C(F)(F)F)c1)C(=O)[C@@H](CC(=O)N1CCC(N2CCCCC2)CC1)N1C(=O)[C@@H](N2C(=O)OC[C@@H]2c2ccccc2)[C@H]1/C=C/c1ccccc1 [Example 225, 2(R)-[[4-(Piperidinyl)piperidinyl]carbonylmethyl]-2-[3(S)-(4(S)-phenyloxazolidin-2-on-3-yl)-4(R)-(2-styryl)azetidin-2-on-1-yl]acetic acid N-methyl-N-(3-trifluoromethylbenzyl)amide] | dose-dependent inhibition of the AVP-induced rise in blood pressure | significant (p<0.01) reduction in blood pressure | 1.08 nM | dose-dependent competitive binding curve | 0.05 nM | dose-dependent suppression of the action of AVP | 2.68 nM | bound only to the V1a vasopressin receptor |  |
| COc1ccc(S(=O)(=O)N2c3ccc(Cl)cc3[C@](O)(c3ccccc3Cl)[C@@H]2C(=O)N2CCC[C@H]2C(N)=O)cc1OC [SR49059] |  |  |  |  |  |  |  |  | significant reduction in pain |

Reference: patent publication US9597314B2, “Beta-lactamylalkanoic acids for treating premenstrual disorders” (AZEVAN PHARMACEUTICALS, INC., priority 2005, dated 2017)
